{"source": "patent US20230322761A1", "about": "“DEGRADATION OF BRUTON'S TYROSINE KINASE (BTK) BY CONJUGATION OF BTK INHIBITORS WITH E3 LIGASE LIGAND AND METHODS OF USE” (BEIGENE, LTD., priority 2020, published 2023)", "target": "T1, BTK (Homo sapiens, UniProt Q06187)", "T1 construct": "endogenous in cells; host or cells: TMD-8 cells", "T1 sequence (Q06187 whole entry)": "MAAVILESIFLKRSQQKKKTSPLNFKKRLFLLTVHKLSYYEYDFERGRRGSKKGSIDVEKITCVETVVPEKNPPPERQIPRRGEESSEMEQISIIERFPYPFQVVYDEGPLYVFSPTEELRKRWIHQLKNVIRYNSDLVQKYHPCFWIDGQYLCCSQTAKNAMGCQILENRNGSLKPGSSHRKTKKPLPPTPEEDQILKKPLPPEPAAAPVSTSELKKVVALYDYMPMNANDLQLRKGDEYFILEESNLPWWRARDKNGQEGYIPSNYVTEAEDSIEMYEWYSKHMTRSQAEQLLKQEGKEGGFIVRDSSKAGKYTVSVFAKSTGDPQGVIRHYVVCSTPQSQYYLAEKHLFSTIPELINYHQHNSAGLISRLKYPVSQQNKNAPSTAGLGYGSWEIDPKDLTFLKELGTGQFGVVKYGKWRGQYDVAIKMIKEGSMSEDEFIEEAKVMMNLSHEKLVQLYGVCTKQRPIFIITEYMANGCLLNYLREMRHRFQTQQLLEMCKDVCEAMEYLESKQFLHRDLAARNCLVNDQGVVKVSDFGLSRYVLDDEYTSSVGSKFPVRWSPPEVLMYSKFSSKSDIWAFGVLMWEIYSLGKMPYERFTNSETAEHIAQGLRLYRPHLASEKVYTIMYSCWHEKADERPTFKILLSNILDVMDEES", "assay": "BTK degradation in TMD-8 cells, HTRF assay after 6 h treatment", "assay_type": "cell-based", "details": "IC50 (DC50) of BTK degradation", "in_short": "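Remaining BTK was quantified by HTRF in lysates of TMD-8 cells after 6 h exposure to an 8-point, 6-fold compound series (500× stocks in DMSO starting at 1 mM; 0.2% DMSO). Lysis 30 min, antibodies overnight at room temperature, ratio read at 665/620 nm; DC50 fitted with a four-parameter logistic equation.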", "data": [{"smiles": "Cc1cc(-c2n[nH]c3ncc(-c4ccc(N5CCN(CCC6CCN(c7ccc(C8CCC(=O)NC8=O)c(C)n7)CC6)CC5)cc4)cc23)ccc1[C@@H](C)NC(=O)c1noc(C(C)(C)C)n1", "note": "(stereo partly drawn) [Example 136, 5-(tert-butyl)-N-((1R)-1-(4-(5-(4-(4-(2-(1-(5-(2,6-dioxopiperidin-3-yl)-6-methylpyridin-2-yl)piperidin-4-yl)ethyl)piperazin-1-yl)phenyl)-1H-pyrazolo[3,4-b]pyridin-3-yl)-2-methylphenyl)ethyl)-1,2,4-oxadiazole-3-carboxamide]", "values": [{"measurement": "DC50", "result": 14.9, "unit": "nM"}]}, {"smiles": "COc1cc(CCN2CCN(c3ccc(-c4cnc5[nH]nc(-c6ccc([C@@H](C)NC(=O)c7noc(C(C)(C)C)n7)c(C)c6)c5c4)cc3)CC2)ccc1C1CCC(=O)NC1=O", "note": "(stereo partly drawn) [Example 137, 5-(tert-butyl)-N-((1R)-1-(4-(5-(4-(4-(4-(2,6-dioxopiperidin-3-yl)-3-methoxyphenethyl)piperazin-1-yl)phenyl)-1H-pyrazolo[3,4-b]pyridin-3-yl)-2-methylphenyl)ethyl)-1,2,4-oxadiazole-3-carboxamide]", "values": [{"measurement": "DC50", "result": 5.23, "unit": "nM"}]}, {"smiles": "Cc1cc(-c2n[nH]c3ncc(-c4ccc(N5CCN(CC6CCN(c7cccc(N8CCC(=O)NC8=O)c7)CC6)CC5)cc4)cc23)ccc1[C@@H](C)NC(=O)c1noc(C(C)(C)C)n1", "note": "[Example 138, (R)-5-(tert-butyl)-N-(1-(4-(5-(4-(4-((1-(3-(2,4-dioxotetrahydropyrimidin-1(2H)-yl)phenyl)piperidin-4-yl)methyl)piperazin-1-yl)phenyl)-1H-pyrazolo[3,4-b]pyridin-3-yl)-2-methylphenyl)ethyl)-1,2,4-oxadiazole-3-carboxamide]", "values": [{"measurement": "DC50", "result": 8.6, "unit": "nM"}]}, {"smiles": "Cc1cc(-c2n[nH]c3ncc(-c4ccc(N5CCN(CCc6ccc([C@@H]7CCC(=O)NC7=O)cn6)CC5)cc4)cc23)ccc1[C@@H](C)NC(=O)c1noc(C(C)(C)C)n1", "note": "[Example 139, 5-(tert-butyl)-N—((R)-1-(4-(5-(4-(4-(2-(5-((S)-2,6-dioxopiperidin-3-yl)pyridin-2-yl)ethyl)piperazin-1-yl)phenyl)-1H-pyrazolo[3,4-b]pyridin-3-yl)-2-methylphenyl)ethyl)-1,2,4-oxadiazole-3-carboxamide]", "values": [{"measurement": "DC50", "result": 1.03, "unit": "nM"}]}, {"smiles": "Cc1cc(-c2n[nH]c3ncc(-c4ccc(N5CCN(CCc6ccc([C@H]7CCC(=O)NC7=O)cn6)CC5)cc4)cc23)ccc1[C@@H](C)NC(=O)c1noc(C(C)(C)C)n1", "note": "[Example 140, 5-(tert-butyl)-N—((R)-1-(4-(5-(4-(4-(2-(5-((R)-2,6-dioxopiperidin-3-yl)pyridin-2-yl)ethyl)piperazin-1-yl)phenyl)-1H-pyrazolo[3,4-b]pyridin-3-yl)-2-methylphenyl)ethyl)-1,2,4-oxadiazole-3-carboxamide]", "values": [{"measurement": "DC50", "result": 1.11, "unit": "nM"}]}, {"smiles": "Cc1cc(CCN2CCN(c3ccc(-c4cnc5[nH]nc(-c6ccc([C@@H](C)NC(=O)c7noc(C(C)(C)C)n7)c(C)c6)c5c4)cc3)CC2)ncc1C1CCC(=O)NC1=O", "note": "(stereo partly drawn) [Example 141, 5-(tert-butyl)-N-((1R)-1-(4-(5-(4-(4-(2-(5-(2,6-dioxopiperidin-3-yl)-4-methylpyridin-2-yl)ethyl)piperazin-1-yl)phenyl)-1H-pyrazolo[3,4-b]pyridin-3-yl)-2-methylphenyl)ethyl)-1,2,4-oxadiazole-3-carboxamide]", "values": [{"measurement": "DC50", "result": 3.27, "unit": "nM"}]}, {"smiles": "Cc1cc(-c2n[nH]c3ncc(-c4ccc(N5CCN(CCCOc6ccc(NC7CCC(=O)NC7=O)c(F)c6)CC5)cc4)cc23)ccc1[C@@H](C)NC(=O)c1noc(C(C)(C)C)n1", "note": "(stereo partly drawn) [Example 142, 5-(tert-butyl)-N-((1R)-1-(4-(5-(4-(4-(3-(4-((2,6-dioxopiperidin-3-yl)amino)-3-fluorophenoxy)propyl)piperazin-1-yl)phenyl)-1H-pyrazolo[3,4-b]pyridin-3-yl)-2-methylphenyl)ethyl)-1,2,4-oxadiazole-3-carboxamide]", "values": [{"measurement": "DC50", "result": 6.15, "unit": "nM"}]}, {"smiles": "Cc1cc(-c2n[nH]c3ncc(-c4ccc(N5CCN(CCn6cc(N7CCC(=O)NC7=O)cn6)CC5)cc4)cc23)ccc1[C@@H](C)NC(=O)c1noc(C(C)(C)C)n1", "note": "[Example 143, (R)-5-(tert-butyl)-N-(1-(4-(5-(4-(4-(2-(4-(2,4-dioxotetrahydropyrimidin-1(2H)-yl)-1H-pyrazol-1-yl)ethyl)piperazin-1-yl)phenyl)-1H-pyrazolo[3,4-b]pyridin-3-yl)-2-methylphenyl)ethyl)-1,2,4-oxadiazole-3-carboxamide]", "values": [{"measurement": "DC50", "result": 18.8, "unit": "nM"}]}, {"smiles": "Cc1cc(-c2n[nH]c3ncc(-c4ccc(N5CCC(CN6CCN(c7ccc(N8CCC(=O)NC8=O)cc7)CC6)CC5)cc4)cc23)ccc1[C@@H](C)NC(=O)c1noc(C(C)(C)C)n1", "note": "[Example 144, (R)-5-(tert-butyl)-N-(1-(4-(5-(4-(4-((4-(4-(2,4-dioxotetrahydropyrimidin-1(2H)-yl)phenyl)piperazin-1-yl)methyl)piperidin-1-yl)phenyl)-1H-pyrazolo[3,4-b]pyridin-3-yl)-2-methylphenyl)ethyl)-1,2,4-oxadiazole-3-carboxamide]", "values": [{"measurement": "DC50", "result": 1.93, "unit": "nM"}]}, {"smiles": "Cc1cc(CCN2CCC(c3ccc(-c4cnc5[nH]nc(-c6ccc([C@@H](C)NC(=O)c7noc(C(C)(C)C)n7)c(C)c6)c5c4)nc3)CC2)ncc1C1CCC(=O)NC1=O", "note": "(stereo partly drawn) [Example 145, 5-(tert-butyl)-N-((1R)-1-(4-(5-(5-(1-(2-(5-(2,6-dioxopiperidin-3-yl)-4-methylpyridin-2-yl)ethyl)piperidin-4-yl)pyridin-2-yl)-1H-pyrazolo[3,4-b]pyridin-3-yl)-2-methylphenyl)ethyl)-1,2,4-oxadiazole-3-carboxamide]", "values": [{"measurement": "DC50", "result": 1.22, "unit": "nM"}]}, {"smiles": "Cc1cc(-c2n[nH]c3ncc(-c4ccc(N5CCN(CCc6ccc(C7CCC(=O)NC7=O)c(F)c6)CC5)cn4)cc23)ccc1[C@@H](C)NC(=O)c1noc(C(C)(C)C)n1", "note": "(stereo partly drawn) [Example 146, 5-(tert-butyl)-N-((1R)-1-(4-(5-(5-(4-(4-(2,6-dioxopiperidin-3-yl)-3-fluorophenethyl)piperazin-1-yl)pyridin-2-yl)-1H-pyrazolo[3,4-b]pyridin-3-yl)-2-methylphenyl)ethyl)-1,2,4-oxadiazole-3-carboxamide]", "values": [{"measurement": "DC50", "result": 1.74, "unit": "nM"}]}, {"smiles": "Cc1cc(CCN2CCN(c3ccc(-c4cnc5[nH]nc(-c6ccc([C@@H](C)NC(=O)c7noc(C(C)(C)C)n7)c(C)c6)c5c4)nc3)CC2)ncc1C1CCC(=O)NC1=O", "note": "(stereo partly drawn) [Example 147, 5-(tert-butyl)-N-((1R)-1-(4-(5-(5-(4-(2-(5-(2,6-dioxopiperidin-3-yl)-4-methylpyridin-2-yl)ethyl)piperazin-1-yl)pyridin-2-yl)-1H-pyrazolo[3,4-b]pyridin-3-yl)-2-methylphenyl)ethyl)-1,2,4-oxadiazole-3-carboxamide]", "values": [{"measurement": "DC50", "result": 2.11, "unit": "nM"}]}, {"smiles": "Cc1cc(CCN2CCN(c3ccc(-c4cnc5[nH]nc(-c6ccc([C@@H](C)NC(=O)c7noc(C(C)(C)C)n7)c(C)c6F)c5c4)cc3)CC2)ncc1C1CCC(=O)NC1=O", "note": "(stereo partly drawn) [Example 148, 5-(tert-butyl)-N-((1R)-1-(4-(5-(4-(4-(2-(5-(2,6-dioxopiperidin-3-yl)-4-methylpyridin-2-yl)ethyl)piperazin-1-yl)phenyl)-1H-pyrazolo[3,4-b]pyridin-3-yl)-3-fluoro-2-methylphenyl)ethyl)-1,2,4-oxadiazole-3-carboxamide]", "values": [{"measurement": "DC50", "result": 1.84, "unit": "nM"}]}]}
